# Reference: ChEMBL document CHEMBL1201862, “PubChem BioAssay data set” (2004)
# Active and inactive are the calls of the source.
# Legend:
# [1] = biological target: T1, High affinity choline transporter 1 (Homo sapiens, UniProt Q9GZV3); experiment: human choline transporter blockers, potency – cell-based, 5-point CRC, membrane potential dye, dose response (AID 504840); type: functional
# T1 sequence (Q9GZV3 whole entry): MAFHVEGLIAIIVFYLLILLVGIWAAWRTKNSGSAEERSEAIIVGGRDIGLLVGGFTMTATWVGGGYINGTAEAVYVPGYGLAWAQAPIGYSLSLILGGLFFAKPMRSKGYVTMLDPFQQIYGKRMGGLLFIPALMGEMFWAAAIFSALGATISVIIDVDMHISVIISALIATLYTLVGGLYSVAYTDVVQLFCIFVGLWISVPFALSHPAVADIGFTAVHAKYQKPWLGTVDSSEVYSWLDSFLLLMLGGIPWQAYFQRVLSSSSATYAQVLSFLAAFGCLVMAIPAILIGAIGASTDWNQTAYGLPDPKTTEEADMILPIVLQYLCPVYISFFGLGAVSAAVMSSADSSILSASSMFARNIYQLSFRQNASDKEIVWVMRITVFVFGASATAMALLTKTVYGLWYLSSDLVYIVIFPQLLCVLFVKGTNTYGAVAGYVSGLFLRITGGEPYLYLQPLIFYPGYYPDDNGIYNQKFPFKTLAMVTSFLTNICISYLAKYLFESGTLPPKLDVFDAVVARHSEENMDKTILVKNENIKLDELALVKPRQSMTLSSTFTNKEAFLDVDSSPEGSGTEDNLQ
# Protein skinhead-1 = biological target: T2, Protein skinhead-1 (Caenorhabditis elegans, UniProt P34707); type: functional
# T2 sequence (P34707 whole entry): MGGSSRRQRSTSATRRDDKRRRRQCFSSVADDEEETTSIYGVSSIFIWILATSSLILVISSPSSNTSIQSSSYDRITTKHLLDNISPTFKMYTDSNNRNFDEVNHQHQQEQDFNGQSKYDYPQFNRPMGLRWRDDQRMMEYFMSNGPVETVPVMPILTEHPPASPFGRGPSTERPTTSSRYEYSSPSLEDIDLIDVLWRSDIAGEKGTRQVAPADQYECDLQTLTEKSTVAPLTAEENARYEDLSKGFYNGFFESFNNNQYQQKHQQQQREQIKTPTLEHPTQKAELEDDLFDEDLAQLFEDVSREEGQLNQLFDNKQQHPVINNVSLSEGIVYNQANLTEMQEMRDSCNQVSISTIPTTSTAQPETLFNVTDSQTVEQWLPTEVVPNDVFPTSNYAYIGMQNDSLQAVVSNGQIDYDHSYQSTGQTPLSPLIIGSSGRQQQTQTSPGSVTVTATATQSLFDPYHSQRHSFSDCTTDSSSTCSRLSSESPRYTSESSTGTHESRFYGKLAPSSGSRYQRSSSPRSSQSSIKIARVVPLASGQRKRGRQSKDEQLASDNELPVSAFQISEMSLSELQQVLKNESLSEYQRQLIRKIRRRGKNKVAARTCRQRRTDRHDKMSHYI
# [2] = Luminescence Cell-Based Dose Confirmation HTS to Identify Activators of 5'UTR Stem-Loop Driven Alpha-Synuclein mRNA Translation in H4 Neuroglioblastoma Cells. [Related pubchem assays: 1829 (Project Summary), 1814 (Primary HTS)]; type: functional
# [3] = Luminescence Cell-Based Dose Response HTS to Identify Activators of Luciferase Translation or Activity in H4 […] Cells. [Related pubchem assays: 1829 (Project Summary), 1814 (Primary HTS)]; type: functional
# H4 = experiment: Luminescence Cell-Based Dose Response HTS to Identify Activators of 5'UTR Stem-Loop Driven Prion Protein mRNA Translation in H4 Neuroglioblastoma Cells. [Related pubchem assays: 1829 (Project Summary), 1814 (Primary HTS)]; type: functional; details: Homo sapiens
# [4] = biological target: T3, RNA-binding protein pos-1 (Caenorhabditis elegans, UniProt G5EF15); experiment: disruptors of C. elegans POS-1 RNA interaction – biochemical, fluorescence polarization, dose response (AID 1964);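 also: purified POS-1 fused to maltose binding protein made in E. coli; potency of compounds blocking POS-1 binding to fluorescent RNA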
# T3 sequence (G5EF15 whole entry): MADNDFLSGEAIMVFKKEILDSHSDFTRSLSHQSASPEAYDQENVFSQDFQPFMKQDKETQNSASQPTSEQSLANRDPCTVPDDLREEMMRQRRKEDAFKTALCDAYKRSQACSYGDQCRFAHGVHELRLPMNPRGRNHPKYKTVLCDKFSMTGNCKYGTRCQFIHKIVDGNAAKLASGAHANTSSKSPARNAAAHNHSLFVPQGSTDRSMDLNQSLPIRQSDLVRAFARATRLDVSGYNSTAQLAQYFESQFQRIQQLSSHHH
# [5] = biological target: T4, Zinc finger protein mex-5 (Caenorhabditis elegans, UniProt Q9XUB2); experiment: potency of MEX-5 RNA-binding blockers – biochemical, C. elegans, fluorescence polarization, dose response (AID 1960)
# T4 sequence (Q9XUB2 whole entry): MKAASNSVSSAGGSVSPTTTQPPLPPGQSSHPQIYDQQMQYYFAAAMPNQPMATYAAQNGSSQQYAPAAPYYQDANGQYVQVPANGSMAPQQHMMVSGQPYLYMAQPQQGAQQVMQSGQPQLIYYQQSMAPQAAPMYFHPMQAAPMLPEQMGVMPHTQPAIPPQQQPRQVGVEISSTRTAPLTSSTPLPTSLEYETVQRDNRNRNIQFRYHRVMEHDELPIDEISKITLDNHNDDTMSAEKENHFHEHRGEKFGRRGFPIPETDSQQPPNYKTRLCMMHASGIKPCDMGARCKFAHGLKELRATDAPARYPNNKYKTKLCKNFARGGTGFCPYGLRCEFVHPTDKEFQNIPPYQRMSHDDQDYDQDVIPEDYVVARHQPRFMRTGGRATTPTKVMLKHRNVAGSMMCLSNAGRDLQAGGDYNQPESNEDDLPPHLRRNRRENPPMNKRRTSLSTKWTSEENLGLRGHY
# [6] = reduction of Shn3 3'UTR-driven luciferase in osteoblasts – cell-based, Clone20 osteoblasts, firefly luciferase, cherry-picked, dose response (AID 624132); type: functional;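 also: firefly luciferase luminescence from reporter carrying the Shn3 3'UTR in osteoblasts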
# [7] = non-specific 3'UTR reporter inhibition in Clone20-Shn3RL – cell-based, Renilla luciferase, cherry-picked, counter-screen for Shn3 inhibitor project, dose response (AID 624133); type: functional
# [8] = viability of PTEN-deleted HCT116 cells – cell-based, HCT116 PTEN knockout, dose response (AID 1047); type: functional;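 also: HCT116 colon tumor cells with PTEN knocked out; cells exposed to compound for 60 hours before readout; potency for loss of cell viability measured by luminescence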
# [9] = viability of HCT116 lacking mutant beta-catenin – cell-based, human colon tumor, dose response (AID 1045); type: functional;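 also: HCT116 colon tumor cells with beta catenin knocked out; cells exposed to compound for 60 hours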
# [10] = blockers of bursicon-stimulated LGR2 cAMP reporter – cell-based, HEK293, CRE-luciferase reporter, cherry pick, set 2, dose response (AID 743343); type: functional;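 also: transfected cells were stimulated with diluted bursicon conditioned medium after compound addition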
# [11] = blockade of melanocortin 4 receptor signaling – cell-based, plate reader, cherry pick, counter-screen for LGR2 antagonist project, dose response (AID 743444); type: functional;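 also: transfected HEK 293 cells stimulated with alpha-MSH peptide; potency of inhibitors of the alpha-MSH evoked signal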
# [12] = biological target: T5, Rac GTPase-activating protein 1 (Homo sapiens, UniProt Q9H0H5); experiment: blockers of MgcRacGAP-driven Rac1 GTP hydrolysis – biochemical, ADP Hunter fluorescence, primary and confirmatory, confirmation (AID 624330); type: functional
# T5 sequence (Q9H0H5 whole entry): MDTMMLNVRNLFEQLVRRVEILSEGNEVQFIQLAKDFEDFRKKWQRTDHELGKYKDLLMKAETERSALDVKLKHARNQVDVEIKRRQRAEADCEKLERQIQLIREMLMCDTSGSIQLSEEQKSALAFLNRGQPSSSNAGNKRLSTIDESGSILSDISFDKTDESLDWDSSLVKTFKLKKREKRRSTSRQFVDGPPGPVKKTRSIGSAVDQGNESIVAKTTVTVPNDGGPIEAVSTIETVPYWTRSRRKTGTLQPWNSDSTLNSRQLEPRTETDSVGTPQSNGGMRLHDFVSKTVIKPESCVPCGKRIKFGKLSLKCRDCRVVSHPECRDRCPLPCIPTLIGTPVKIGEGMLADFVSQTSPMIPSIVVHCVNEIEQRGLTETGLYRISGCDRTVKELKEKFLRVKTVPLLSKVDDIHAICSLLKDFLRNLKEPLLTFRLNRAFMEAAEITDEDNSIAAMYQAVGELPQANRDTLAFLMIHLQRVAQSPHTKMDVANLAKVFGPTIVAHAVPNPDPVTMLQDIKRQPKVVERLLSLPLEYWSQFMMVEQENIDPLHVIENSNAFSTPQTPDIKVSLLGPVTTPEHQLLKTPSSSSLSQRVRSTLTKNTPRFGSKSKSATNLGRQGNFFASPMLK
# [13] = viability of uninfected HEp-2 cells – cell-based, HTS, cytotoxicity control for RSV inhibitor project, dose response (AID 2410); type: functional; details: human respiratory syncytial virus
# [14] = luciferase reporter signal suppression in cells – H4 neuroglioma cells, luminescence, dose response (AID 1990); type: functional, cell-based
# [15] = Luminescence Cell-Based Dose Response HTS to Identify Inhibitors of 5'UTR Stem-Loop Driven Prion Protein mRNA Translation in H4 Neuroglioblastoma Cells. [Related pubchem assays: 1827 (Project Summary), 1813 (Primary HTS)]; type: functional
# [16] = alpha-synuclein stem-loop luciferase translation blockers – H4 neuroglioma cells, luminescence, confirmation (AID 1988); type: functional, cell-based
# [17] = biological target: T6, Microphthalmia-associated transcription factor (Homo sapiens, UniProt O75030); experiment: reducers of TRPM1 reporter luminescence, concentration series – cell-based, SK-MEL-5, cherry-picked, set 3, MITF inhibitor project, dose response (AID 493073); type: functional;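 also: SK-MEL-5 melanoma cells with luciferase driven by the MITF target TRPM1 promoter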
# T6 sequence (O75030 whole entry): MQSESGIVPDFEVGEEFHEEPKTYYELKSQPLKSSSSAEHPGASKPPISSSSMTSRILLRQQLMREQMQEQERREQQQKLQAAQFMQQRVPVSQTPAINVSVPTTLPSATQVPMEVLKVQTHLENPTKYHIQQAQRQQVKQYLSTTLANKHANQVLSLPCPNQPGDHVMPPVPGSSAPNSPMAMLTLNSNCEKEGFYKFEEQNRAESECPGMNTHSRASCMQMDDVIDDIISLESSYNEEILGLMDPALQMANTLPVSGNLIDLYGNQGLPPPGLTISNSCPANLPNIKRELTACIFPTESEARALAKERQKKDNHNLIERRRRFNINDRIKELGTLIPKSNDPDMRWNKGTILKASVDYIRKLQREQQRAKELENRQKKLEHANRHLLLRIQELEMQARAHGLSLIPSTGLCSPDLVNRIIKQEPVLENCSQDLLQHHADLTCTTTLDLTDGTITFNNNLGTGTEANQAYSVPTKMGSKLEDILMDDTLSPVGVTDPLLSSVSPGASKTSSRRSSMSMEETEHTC
Structure (SMILES),EC50 [2],EC50 [3],EC50 (H4),other results
CCOC(=O)c1cccc(NC(=O)CCS(=O)(=O)c2cccc3nsnc23)c1,,,,IC50 [1]: 14.8 µM (active)
COc1cc2nc(C3CC3)n(NC(=O)c3ccc(Cl)cc3)c(=O)c2cc1OC,,,,IC50 (Protein skinhead-1): > 100 µM (inactive)
CCCOc1ccc(C(CC(=O)O)NC(=O)CC(c2ccccc2)c2ccccc2)cc1 (configuration not stated),,,,IC50 [1]: 12 µM (active)
NS(=O)(=O)c1cc2c(cc1Cl)NC(C1C[C@H]3C=C[C@@H]1C3)NS2(=O)=O (some centres not stated),> 120 µM (not active),> 120 µM (not active),> 120 µM (not active),
ClC(=C\c1ccccc1)/C=N/N1CCN(c2ccccn2)CC1,0.347 µM (active),36.5 µM (active),8.35 µM (active),
CC(=O)N(C1=NCCCS1)c1ccc(F)cc1,,,,IC50 (Protein skinhead-1): > 100 µM (inactive)
Cc1ccc2nc3sc(C(=O)N4CCCc5ccccc54)c(N)c3cc2c1,> 120 µM (not active),7.55 µM (active),> 120 µM (not active),EC50 [4]: > 300 µM (not active); EC50 [5]: > 300 µM (inconclusive)
O=C1Nc2cc(Cl)c(Cl)cc2N(O)N1c1ccc(Cl)cc1,> 120 µM (not active),> 120 µM (not active),> 120 µM (not active),
CC(C)CCNC(=O)c1cc2c(O)nc3ccccc3c2s1,,,,AC50 [6]: 41.5 µM (active); AC50 [7]: 18.4 µM (active)
CCc1cc(SC#N)cc(CC)c1NC(=O)CCl,,,,EC50 [8]: 8.97 µM (active); EC50 [9]: 8.43 µM (active)
CC(C)CC(=O)Nc1ccc(Nc2ccccc2)cc1,,,,IC50 (Protein skinhead-1): > 100 µM (inactive)
COc1ccc2cc(C(=O)N3CCN(C)CC3)[nH]c2c1,13.3 µM (active),9.45 µM (active),> 120 µM (not active),
CCCNC(=O)c1c(NC(=O)C2COc3ccccc3O2)sc2c1CCCC2 (configuration not stated),,,,EC50 [8]: 8.59 µM (active); EC50 [9]: 9.98 µM (active)
COc1ccc(C2=NN(CN3C(=O)C(=O)c4ccccc43)C(c3ccc(OC)cc3)C2)cc1 (configuration not stated),14.6 µM (active),,0.112 µM (active),
O=C(CNS(=O)(=O)c1cccs1)Nc1ccc2c(c1)OCCO2,11.6 µM (active),7.8 µM (active),2.85 µM (active),
C=C(C)CN1C(=O)C(O)(CC(=O)c2ccc3c(c2)OCCO3)c2ccccc21 (configuration not stated),,,,EC50 [8]: 22.1 µM (active); EC50 [9]: 22.7 µM (active)
C[n+]1cn(/N=C/c2ccccc2)c2ccccc21,17.4 µM (active),> 120 µM (not active),57.7 µM (active),
CN(C)c1ccc(C2NC(=O)c3ccccc3N2)cc1 (configuration not stated),,,,AC50 [10]: 7.27 µM (active); AC50 [11]: 9.95 µM (active)
COc1cc(/C=N/NC(=O)C(=O)N2CCCC2)ccc1O,,,,IC50 [12]: 26.7 µM (active)
Brc1ccc(-c2cn3ccccc3n2)s1,,,,IC50 (Protein skinhead-1): 12.7 µM (active)
FC(F)(F)c1ccccc1Cc1c(-c2ccccc2)nc2ccc(Br)cn12,,,,IC50 (Protein skinhead-1): > 100 µM (inactive)
Fc1ccccc1Nc1nc2ccccc2n2nnnc12,26.2 µM (active),95.3 µM (active),62.6 µM (active),
CCOC(=O)N1CCC(N2CCN(S(=O)(=O)c3ccc4ccccc4c3)CC2)CC1,,,,IC50 [12]: 151 µM (active)
O=C(Nc1nc2c(ccc3ccccc32)s1)c1ccco1,,,,CC50 [13]: 14.8 µM (active); IC50 (Protein skinhead-1): 14.9 µM (active)
c1ccc(CSc2nnc(-c3ccco3)n2Cc2ccccc2)cc1,0.166 µM (active),6.57 µM (active),7.76 µM (active),
O=C(Nc1nc2cc3c(cc2s1)OCO3)C1=COCCO1,,,,EC50 [14]: 2.39 µM (inconclusive); EC50 [15]: 6.64 µM (active); EC50 [16]: 1.22 µM (active); AC50 [17]: 3.77 µM (active)
COc1ccc(N2CC2c2ccncc2)cc1 (configuration not stated),,,,IC50 [12]: 144 µM (active)
